Data on two compounds can be found in BindingDB's records for patent US11518761 (Vyera Pharmaceuticals, 2022).

In this experiment the target is T1, Calmodulin-domain protein kinase 1 (Toxoplasma gondii, UniProt Q9BJF5).
T1 sequence (Q9BJF5 whole entry): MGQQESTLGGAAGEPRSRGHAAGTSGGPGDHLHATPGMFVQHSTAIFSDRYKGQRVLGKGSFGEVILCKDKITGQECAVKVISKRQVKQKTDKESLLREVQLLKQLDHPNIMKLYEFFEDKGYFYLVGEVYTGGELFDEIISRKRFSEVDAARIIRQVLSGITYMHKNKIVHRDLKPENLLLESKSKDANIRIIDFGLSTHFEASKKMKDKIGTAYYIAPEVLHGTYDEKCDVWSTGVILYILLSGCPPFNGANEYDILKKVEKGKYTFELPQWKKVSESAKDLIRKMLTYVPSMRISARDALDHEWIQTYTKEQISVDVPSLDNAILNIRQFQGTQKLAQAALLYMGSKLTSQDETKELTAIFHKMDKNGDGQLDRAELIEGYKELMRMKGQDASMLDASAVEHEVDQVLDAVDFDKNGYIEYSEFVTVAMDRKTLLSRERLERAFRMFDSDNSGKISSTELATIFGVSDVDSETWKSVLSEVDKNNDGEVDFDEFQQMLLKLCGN
As to the kind of experiment: Inhibition Assay. As to the method: Certain of the compounds prepared as described above were assayed to determine their IC50 for inhibition of T. gondii CDPK1 (tgCDPK1). At least three independent replicates of the assay were conducted for each compound tested.

For `N#Cc1cccc(Oc2nn([C@H]3C[C@H](F)C3)c3ncnc(N)c23)c1` [US11518761, Example 173], the IC50 (commonly the point on the concentration scale where inhibition reaches its midpoint) was 0.0498 µM. In other words, the double-digit nanomolar range. The compound `N#Cc1cccc(Oc2nn([C@H]3C[C@H](O)C3)c3ncnc(N)c23)c1` [US11518761, Example 178] showed an IC50 of 0.0796 µM.
